Results taken from patent US6187810A, “Macrocyclic compounds made from suboxide units” (Donatur Dr. Kerek GmbH, priority 1996, dated 2001).
Where two headings read alike, the source gives them in different places.

Experiments:
[1] = Acute toxicity of cardiac glycosides applied together with the active substances; assay type: in vivo
Text: Furthermore, as was experimentally established, the active substances according to the invention are capable to control the activity of several other essential enzymes, for example collegenases, hyaluronidases, phosphokinases and other enzymes. According to all indications, the active substances according to the invention are useable as endogenous ligands of the Na^+,K^+ -ATPase enzyme.

hemoglobin = settings: cited from earlier work
mice = settings: cited from earlier work; for toxicity in words (blood toxin, irritation): mouse, in vivo

SMILES: C[C@@H]1O[C@@H](O[C@H]2C[C@@H](O)[C@]3(CO)[C@H]4[C@H](O)C[C@]5(C)[C@@H](C6=CC(=O)OC6)CC[C@]5(O)[C@@H]4CC[C@]3(O)C2)[C@H](O)[C@H](O)[C@H]1O [ouabain]
- toxic side-effects of cardiac glycoside ([1]; active substances applied together with the glycoside): reduction of the toxic side-effects

SMILES: O=C=C=C=O [C3 O2, carbon suboxide]
- binding to hemoglobin (hemoglobin): irreversibly binds hemoglobin
- tolerability limit in mice (mice; C3 O2 in dry air): 0.2-0.4%
- toxicity in words (blood toxin, irritation) (mice): irritating to mucus membranes
- toxicity in words (blood toxin, irritation) (mice; listed as Carbon suboxide): relatively strong blood toxin

SMILES: C[C@@H]1O[C@@H](O[C@H]2CC[C@]3(C=O)[C@H]4CC[C@]5(C)[C@@H](c6ccc(=O)oc6)CC[C@]5(O)[C@@H]4CC[C@]3(O)C2)[C@H](O)[C@H](O)[C@H]1O[C@@H]1O[C@H](CO)[C@@H](O)[C@H](O)[C@H]1O [hellebrin]
- LD50 ([1]; with active substances at molar ratio 0.02 to 2/1 mol glycoside, preferably 1:1): considerably higher
